Experiment [1] has as its system Escherichia coli strain ATCC25922. The experiment in a line: Standard microdilution MIC assay, E. coli. It counts as cell-based. How it is done:
(§1) The in vitro activity of the compounds of the present disclosure can be determined. Antimicrobial testing is typically performed to determine the minimum inhibitory concentration (MIC). Minimum inhibitory concentrations (MICs) are determined by the microdilution method in a final volume of 100 μl according to protocols outlined by The Clinical and Laboratory Standards Institute (CLSI). Performance standards for reference strains are assessed within the same experimental design to maintain quality control. See, for example, Clinical Laboratory Standards Institute: Methods for dilution antimicrobial susceptibility tests for bacteria that grow aerobically M7-A8. Approved Standard-Eighth Edition. Wayne, PA: CLSI; December 2008; and Clinical Laboratory Standards Institute: Performance Standards for Antimicrobial Susceptibility Testing M100-S20; Approved Standard-Twentieth Edition. Wayne, PA: CLSI; June 2010.
(§2) The compounds of the present disclosure were tested for antimicrobial activity. The Compounds 1-293 were run against Escherichia coli (E co/i) strain ATCC25922 and against Staphylococcus aureus (S. aureus) 11540 strain using a standard microdilution assay to determine minimum inhibitory concentrations (MICs). […] It will be recognized by one skilled in the art that the compounds can be assessed against other bacterial organisms and that the presentation of data for activity against Escherichia coli and Staphylococcus aureus are illustrative and in no way is intended to limit the scope of the present disclosure. The compounds of the present disclosure can be assayed against a range of other microorganisms depending upon the performance activity desired to be gathered. Furthermore, the “+” and “−” representation and the selection of a cutoff value of 16 micrograms/mL is also illustrative and in no way is intended to limit the scope of the present disclosure.
A general note: Dilution methods test growth across graded concentrations, often in twofold steps.

For experiment [2], the system named is Staphylococcus aureus (S. aureus) 11540 strain. The experiment in a line: Standard microdilution MIC assay, S. aureus. It counts as cell-based. As for the experimental part: as §1, §2

Some results are limits rather than exact numbers.

`C=C[C@@H](CCNC(=N)CF)NCc1ccc(-n2cc3cc(-c4cc(CCC[C@@H](N)CO)cc(Cl)c4F)[nH]c3nc2=O)cc1` [Compound 2]: the MIC in experiment [1] and in experiment [2] was ≤ 16 µg/mL each time.

`C=C[C@@H](CCNC(C)=N)OCc1ccc(-n2cc3cc(-c4cc(CCC[C@H](C)N)cc(Cl)c4F)[nH]c3nc2=O)cc1` [Compound 3]: the MIC in experiment [1] and in experiment [2] was ≤ 16 µg/mL throughout.

Consider `CC(=N)NCC[C@H]1CNC[C@@H](c2ccc(-n3cc4cc(-c5cc(CCC[C@H](C)N)cc(Cl)c5F)[nH]c4nc3=O)cc2)O1` [Compound 4], for which the MIC in experiment [1] and in experiment [2] was ≤ 16 µg/mL in each case.

In the case of `C=CC(CCNC(C)=N)NCc1ccc(-n2cc3cc(-c4cc(CCCC(C)(C)N)cc(Cl)c4F)[nH]c3nc2=O)cc1` (stereo not shown) [Compound 6], the MIC in experiment [1] and in experiment [2] was ≤ 16 µg/mL in each case.

`CC(=N)NCC[C@@H]1CCC[C@@H](c2ccc(-n3cc4cc(-c5cc(CCCC(C)(C)N)cc(Cl)c5F)[nH]c4nc3=O)cc2)N1` [Compound 7]: the MIC in experiment [1] and in experiment [2] was ≤ 16 µg/mL each time.

`C=CC(CCNC(C)=N)NCc1ccc(-n2cc3cc(-c4cc(CCC[C@@H](N)CO)cc(Cl)c4F)[nH]c3nc2=O)cc1` (stereo partly shown) [Compound 8]: the MIC in experiment [1] and in experiment [2] was ≤ 16 µg/mL each time.

For the compound `C=CC(CCNC(=N)CSC)NCc1ccc(-n2cc3cc(-c4cc(CCC[C@H](C)N)cc(Cl)c4F)[nH]c3nc2=O)cc1` (stereo partly shown) [Compound 9], the MIC in experiment [1] and in experiment [2] was ≤ 16 µg/mL throughout.

Consider `C=CC(CCNC(=N)CCOCC)NCc1ccc(-n2cc3cc(-c4cc(CCC[C@H](C)N)cc(Cl)c4F)[nH]c3nc2=O)cc1` (stereo partly shown) [Compound 10], for which the MIC in experiment [1] and in experiment [2] was ≤ 16 µg/mL in each case.

In the case of `C=CC(CCNC(C)=N)NCc1ccc(-n2cc3cc(-c4cc(CCC[C@@H](N)C(F)(F)F)cc(Cl)c4F)[nH]c3nc2=O)cc1` (stereo partly shown) [Compound 11], the results for the MIC in experiment [1] and in experiment [2] were > 16 µg/mL and ≤ 16 µg/mL, respectively.

With `CC(C)(N)CCCc1cc(Cl)c(F)c(-c2cc3cn(-c4ccc([C@@H]5CCC[C@@H](CCNC(=N)CF)N5)cc4)c(=O)nc3[nH]2)c1` [Compound 12], the MIC in experiment [1] and in experiment [2] was ≤ 16 µg/mL each time.

As to `C=CC(CCNC(=N)CF)NCc1ccc(-n2cc3cc(-c4cc(CCC[C@@H](N)C(F)(F)F)cc(Cl)c4F)[nH]c3nc2=O)cc1` (stereo partly shown) [Compound 13], the minimal inhibitory concentration (MIC) in experiment [1] and in experiment [2] was > 16 µg/mL each time.

For the compound `C=C[C@@H](CCNC(C)=N)NCc1ccc(-n2cc3cc(-c4cc(CCC[C@H](C)N)cc(Cl)c4F)[nH]c3nc2=O)cc1` [Compound 14], the MIC in experiment [1] and in experiment [2] was ≤ 16 µg/mL throughout.

Regarding `C=C[C@@H](CCNC(=N)CCO)NCc1ccc(-n2cc3cc(-c4cc(CCC[C@H](C)N)cc(Cl)c4F)[nH]c3nc2=O)cc1` [Compound 15], the MIC in experiment [1] and in experiment [2] was ≤ 16 µg/mL throughout.

Take `C=CC(CCNC(=N)CC(F)(F)F)NCc1ccc(-n2cc3cc(-c4cc(CCC[C@H](C)N)cc(Cl)c4F)[nH]c3nc2=O)cc1` (stereo partly shown) [Compound 16]: the MIC in experiment [1] and in experiment [2] was ≤ 16 µg/mL in each case.

Regarding `CC(=N)NCC[C@H](CN)NCc1ccc(-n2cc3cc(-c4cc(CCC[C@H](C)N)cc(Cl)c4F)[nH]c3nc2=O)cc1` [Compound 17], the MIC in experiment [1] and in experiment [2] was ≤ 16 µg/mL throughout.

With `CC(=N)NCC[C@H](CO)NCc1ccc(-n2cc3cc(-c4cc(CCC[C@H](C)N)cc(Cl)c4F)[nH]c3nc2=O)cc1` [Compound 18], the MIC in experiment [1] and in experiment [2] was ≤ 16 µg/mL throughout.

Regarding `CC(=N)NCC[C@H](CNc1ncc[nH]1)NCc1ccc(-n2cc3cc(-c4cc(CCC[C@H](C)N)cc(Cl)c4F)[nH]c3nc2=O)cc1` [Compound 19], the MIC in experiment [1] and in experiment [2] was ≤ 16 µg/mL in each case.

`C[C@H](N)CCCc1cc(Cl)c(F)c(-c2cc3cn(-c4ccc(CN[C@@H](CN)CCNC(=N)CF)cc4)c(=O)nc3[nH]2)c1` [Compound 20]: the MIC in experiment [1] and in experiment [2] was ≤ 16 µg/mL each time.

Consider `C[C@H](N)CCCc1cc(Cl)c(F)c(-c2cc3cn(-c4ccc(CN[C@H](CCNC(=N)CF)CNc5ncc[nH]5)cc4)c(=O)nc3[nH]2)c1` [Compound 21], for which the minimum inhibitory concentration (MIC) in experiment [1] and in experiment [2] was ≤ 16 µg/mL in each case.

Regarding `C=CC(CCNC(=N)CF)NCc1ccc(-n2cc3cc(-c4cc(CCCC(C)(C)N)cc(Cl)c4F)[nH]c3nc2=O)cc1` (stereo not shown) [Compound 22], the MIC in experiment [1] and in experiment [2] was ≤ 16 µg/mL throughout.

On to `CC(=N)NCC[C@@H]1CCC[C@@H](c2ccc(-n3cc4cc(-c5cc(CCC(C)(C)CN)cc(Cl)c5F)[nH]c4nc3=O)cc2)N1` [Compound 24], for which the MIC in experiment [1] and in experiment [2] was ≤ 16 µg/mL each time.

With `CC(C)(CN)CCc1cc(Cl)c(F)c(-c2cc3cn(-c4ccc([C@@H]5CCC[C@@H](CCNC(=N)CF)N5)cc4)c(=O)nc3[nH]2)c1` [Compound 25], the MIC in experiment [1] and in experiment [2] was ≤ 16 µg/mL throughout.

For the compound `C=CC(CCNC(C)=N)NCc1ccc(-n2cc3cc(-c4cc(CCC(C)(C)CN)cc(Cl)c4F)[nH]c3nc2=O)cc1` (stereo not shown) [Compound 26], the MIC in experiment [1] and in experiment [2] was ≤ 16 µg/mL throughout.

In the case of `C=CC(CCNC(=N)CF)NCc1ccc(-n2cc3cc(-c4cc(CCC(C)(C)CN)cc(Cl)c4F)[nH]c3nc2=O)cc1` (stereo not shown) [Compound 27], the MIC in experiment [1] and in experiment [2] was ≤ 16 µg/mL throughout.

For the compound `C[C@H](N)CCCc1cc(Cl)c(F)c(-c2cc3cn(-c4ccc([C@@H]5CNC[C@H](CCNC(=N)CF)O5)cc4)c(=O)nc3[nH]2)c1` [Compound 28], the MIC in experiment [1] and in experiment [2] was ≤ 16 µg/mL each time.

On to `CC(=N)NCC[C@@H]1CCC[C@@H](c2ccc(-n3cc4cc(-c5cc(CCC[C@H](C)NC(C)=N)cc(Cl)c5F)[nH]c4nc3=O)cc2)N1` [Compound 29], for which the MIC in experiment [1] and in experiment [2] was ≤ 16 µg/mL each time.

Take `C=C[C@@H](N)CCCc1cc(Cl)c(F)c(-c2cc3cn(-c4ccc(CN[C@@H](C=C)CCNC(C)=N)cc4)c(=O)nc3[nH]2)c1` [Compound 30]: the MIC in experiment [1] and in experiment [2] was ≤ 16 µg/mL throughout.

Take `C=C[C@@H](N)CCCc1cc(Cl)c(F)c(-c2cc3cn(-c4ccc(CN[C@H](C=C)CCNC(C)=N)cc4)c(=O)nc3[nH]2)c1` [Compound 31]: the MIC in experiment [1] and in experiment [2] was ≤ 16 µg/mL in each case.

Take `CC(=N)NCC[C@@H]1CNC[C@@H](c2ccc(-n3cc4cc(-c5cc(CCC[C@H](C)N)cc(Cl)c5F)[nH]c4nc3=O)cc2)O1` [Compound 32]: the MIC in experiment [1] and in experiment [2] was ≤ 16 µg/mL in each case.

For `C=CCC(=N)NCCC(C=C)NCc1ccc(-n2cc3cc(-c4cc(CCC[C@H](C)N)cc(Cl)c4F)[nH]c3nc2=O)cc1` (stereo partly shown) [Compound 33], the MIC in experiment [1] and in experiment [2] was ≤ 16 µg/mL throughout.

Turning to `C=CC(CCNC(=N)COC)NCc1ccc(-n2cc3cc(-c4cc(CCC[C@H](C)N)cc(Cl)c4F)[nH]c3nc2=O)cc1` (stereo partly shown) [Compound 34], the MIC in experiment [1] and in experiment [2] was ≤ 16 µg/mL throughout.

For the compound `CC(=N)NCC[C@H](CO)NCc1ccc(-n2cc3cc(-c4cc(CCC[C@@H](N)CO)cc(Cl)c4F)[nH]c3nc2=O)cc1` [Compound 35], the MIC in experiment [1] and in experiment [2] was ≤ 16 µg/mL each time.

`C=C[C@@H](N)CCCc1cc(Cl)c(F)c(-c2cc3cn(-c4ccc(CN[C@@H](C=C)CCNC(=N)CF)cc4)c(=O)nc3[nH]2)c1` [Compound 37]: the MIC in experiment [1] and in experiment [2] was ≤ 16 µg/mL in each case.

With `C=C[C@@H](N)CCCc1cc(Cl)c(F)c(-c2cc3cn(-c4ccc(CN[C@H](C=C)CCNC(=N)CF)cc4)c(=O)nc3[nH]2)c1` [Compound 38], the MIC in experiment [1] and in experiment [2] was ≤ 16 µg/mL throughout.

As to `C=C[C@@H](N)CCCc1cc(Cl)c(F)c(-c2cc3cn(-c4ccc(CN[C@@H](CO)CCNC(C)=N)cc4)c(=O)nc3[nH]2)c1` [Compound 39], the MIC in experiment [1] and in experiment [2] was ≤ 16 µg/mL each time.

On to `CC(=N)NCC[C@H](CO)NCc1ccc(-n2cc3cc(-c4cc(CCCC(C)(C)N)cc(Cl)c4F)[nH]c3nc2=O)cc1` [Compound 40], for which the MIC in experiment [1] and in experiment [2] was ≤ 16 µg/mL each time.

Take `CSCC(=N)NCC[C@H](CO)NCc1ccc(-n2cc3cc(-c4cc(CCC[C@H](C)N)cc(Cl)c4F)[nH]c3nc2=O)cc1` [Compound 41]: the MIC in experiment [1] and in experiment [2] was ≤ 16 µg/mL throughout.

Consider `CSCC(=N)NCC[C@@H]1CCC[C@@H](c2ccc(-n3cc4cc(-c5cc(CCC[C@H](C)N)cc(Cl)c5F)[nH]c4nc3=O)cc2)N1` [Compound 42], for which the MIC in experiment [1] and in experiment [2] was ≤ 16 µg/mL each time.

Turning to `C=C[C@@H](CCNC(=N)CF)NCc1ccc(-n2cc3cc(-c4cc(CCC[C@@H](N)C(F)(F)F)cc(Cl)c4F)[nH]c3nc2=O)cc1` [Compound 43], the MIC in experiment [1] and in experiment [2] was ≤ 16 µg/mL each time.

Turning to `C=C[C@H](CCNC(=N)CF)NCc1ccc(-n2cc3cc(-c4cc(CCC[C@@H](N)C(F)(F)F)cc(Cl)c4F)[nH]c3nc2=O)cc1` [Compound 44], the MIC (usually the least concentration at which growth counts as inhibited) in experiment [1] was > 16 µg/mL; in experiment [2] it was ≤ 16 µg/mL.

On to `CC(=N)NCC[C@@H]1CNC[C@H](c2ccc(-n3cc4cc(-c5cc(CCC[C@H](C)N)cc(Cl)c5F)[nH]c4nc3=O)cc2)N1` [Compound 45], for which the MIC in experiment [1] and in experiment [2] was ≤ 16 µg/mL each time.

(Values after US11999739B2, “Antimicrobials methods of making and using the same” (BIOVERSYS AG, priority 2016, dated 2024).)
